What was measured:
[1] = test system: production of TNF by monocytes activated with bacterial lipopolysaccharide (LPS); assay: Lipopolysaccharide-activated monocyte TNF production assay (whole blood monocyte assay, LPS induced TNF release); type: cell-based; conditions: Homo sapiens
Method: Lipopolysaccharide-Activated Monocyte TNF Production Assay
Test compounds were evaluated in vitro for the ability to inhibit the production of TNF by monocytes activated with bacterial lipopolysaccharide (LPS). Fresh residual source leukocytes (a byproduct of plateletpheresis) were obtained from a local blood bank, and peripheral blood mononuclear cells (PBMCs) were isolated by density gradient centrifugation on Ficol-Paque Plus (Pharmacia). PBMCs were suspended at 2×10^6/mL in DMEM supplemented to contain 2% FCS, 10 mM, 0.3 mg/mL […], 100 U/mL penicillin G and […] streptomycin sulfate (complete media). Cells were plated into Falcon flat bottom, 96 well culture plates (200 μL/well) and cultured overnight at 37° C. and 6% CO2. Non-adherent cells were removed by washing with 200 μl/well of fresh medium. Wells containing adherent cells (˜70% monocytes) were replenished with 100 μL of fresh medium.
Preparation of Test Compound Stock Solutions
Test compounds were dissolved in […]. Compound stock solutions were prepared to an initial concentration of […]. Stocks were diluted initially to 20-200 μM in complete media. Nine two-fold serial dilutions of each compound were then prepared in complete medium.
Treatment of Cells with Test Compounds and Activation of TNF Production with Lipopolysaccharide
One hundred microliters of each test compound dilution were added to microtiter wells containing adherent monocytes and 100 μL complete medium. Monocytes were cultured with test compounds for 60 min at which time 25 μL of complete medium containing 30 ng/mL lipopolysaccharide from E. coli K532 were added to each well. Cells were cultured an additional 4 hrs. Culture supernatants were then removed and TNF presence in the supernatants was quantified using an ELISA.
Flat bottom, 96 well Corning High Binding ELISA plates were coated overnight (4° C.) with 150 μL/well of 3 μg/mL murine anti-human TNF-α MAb (R&D Systems #MAB210). Wells were then blocked for 1 h at room temperature with 200 μL/well of CaCl2-free ELISA buffer supplemented to contain 20 mg/mL BSA (standard ELISA buffer: […], 150 mM NaCl, 2 mM CaCl2, 0.15 mM thimerosal, pH 7.4). Plates were washed and replenished with 100 μL of test supernatants (diluted 1:3) or standards. Standards consisted of eleven 1.5-fold serial dilutions from a stock of 1 ng/mL recombinant human TNF (R&D Systems). Plates were incubated at room temperature for 1 h on orbital shaker (300 rpm), washed and replenished with 100 μL/well of 0.5 μg/mL goat anti-human TNF-α (R&D systems #AB-210-NA) biotinylated at a 4:1 ratio. Plates were incubated for 40 min, washed and replenished with 100 μL/well of alkaline phosphatase-conjugated streptavidin (Jackson ImmunoResearch #016-050-084) at 0.02 μg/mL. Plates were incubated 30 min, washed and replenished with 200 μL/well of 1 mg/mL of p-nitrophenyl phosphate. After 30 min, plates were read at 405 nm on a Vmax plate reader.

[2] = AA5225_IC50_IP (Table 4, assay code not explained); conditions: internal assay code
[3] = AA2734_IC50_IP (Table 4, assay code not explained); conditions: internal assay code

IC50 [2] [nM]	IC50 [3] [nM]	SMILES	IC50 [1] [nM]
		Cc1ccc(C(=O)Nc2ccon2)cc1-c1ccc2c(NC(C)C)nncc2c1 [Example 13, N-3-isoxazolyl-4-methyl-3-(1-((1-methylethyl)amino)-6-phthalazinyl)benzamide]	≤ 10
		Cc1ccc(C(=O)Nc2ccnn2C)cc1-c1ccc2c(N3CCOC[C@@H]3C)nncc2c1 [Example 15, 4-methyl-3-(1-((3S)-3-methyl-4-morpholinyl)-6-phthalazinyl)-N-(1-methyl-1H-pyrazol-5-yl)benzamide]	≤ 10
		Cc1ccc(C(=O)NCC(F)(F)F)cc1-c1ccc2c(NC(C)C)nncc2c1 [Example 29, 4-methyl-3-(1-((1-methylethyl)amino)-6-phthalazinyl)-N-(2,2,2-trifluoroethyl)benzamide]	≤ 10
		Cc1ccc(C(N)=O)cc1-c1ccc2c(N3CCC[C@H]3C(C)(C)C)nncc2c1 [Example 35, 3-(1-((2S)-2-(1,1-dimethylethyl)-1-pyrrolidinyl)-6-phthalazinyl)-4-methylbenzamide]	≤ 10
		Cc1ccc(C(=O)NC(C)C)cc1-c1ccc2c(N3CCC[C@H]3C)nncc2c1 [Example 37, 4-methyl-N-(1-methylethyl)-3-(1-((2R)-2-methyl-1-pyrrolidinyl)-6-phthalazinyl)benzamide]	≤ 10
		Cc1ccc(C(=O)NC(C)C)cc1-c1ccc2c(C(C)C)nncc2c1 [Example 39, 4-methyl-N-(1-methylethyl)-3-(1-(1-methylethyl)-6-phthalazinyl)benzamide]	≤ 10
		Cc1ccc(C(=O)NC(C)C)cc1-c1ccc2c(O[C@H](C)C(F)(F)F)nncc2c1 [Example 41, 4-methyl-N-(1-methylethyl)-3-(1-(((1R)-2,2,2-trifluoro-1-methylethyl)oxy)-6-phthalazinyl)benzamide]	≤ 100
		Cc1ccc(C(N)=O)cc1-c1ccc2c(O[C@H](C)C(F)(F)F)nncc2c1 [Example 43, 4-methyl-3-(1-(((1R)-2,2,2-trifluoro-1-methylethyl)oxy)-6-phthalazinyl)benzamide]	≤ 100
		CCC(C)c1nncc2cc(-c3cc(C(N)=O)ccc3C)ccc12 (stereo not drawn) [Example 51, 4-methyl-3-(1-(1-methylpropyl)-6-phthalazinyl)benzamide]	≤ 10
		Cc1ccc(C(=O)NC2(C)CC2)cc1-c1ccc2c(N3CCC[C@@H]3C)nncc2c1 [Example 66, 4-methyl-N-(1-methylcyclopropyl)-3-(1-((2S)-2-methyl-1-pyrrolidinyl)-6-phthalazinyl)benzamide]	≤ 10
		Cc1ccc(C(=O)Nc2ccn(C)n2)cc1-c1ccc2c(O[C@@H](C)C(F)(F)F)nncc2c1 [Example 72, 4-methyl-N-(1-methyl-1H-pyrazol-3-yl)-3-(1-(((1S)-2,2,2-trifluoro-1-methylethyl)oxy)-6-phthalazinyl)benzamide]	≤ 10
		Cc1ccc(N)cc1-c1ccc2c(O[C@H](C)C(F)(F)F)nncc2c1 [Example 238, 4-methyl-3-(1-(((1R)-2,2,2-trifluoro-1-methylethyl)oxy)-6-phthalazinyl)aniline]	≤ 250
0.954	0.296	Cc1ccc(C(=O)Nc2ccnn2C)cc1-c1ccc2c([C@](C)(O)C(F)(F)F)nncc2c1 [Example 250, 4-methyl-N-(1-methyl-1H-pyrazol-5-yl)-3-(1-((1S)-2,2,2-trifluoro-1-hydroxy-1-methylethyl)-6-phthalazinyl)benzamide]	
0.913	0.2	Cc1ccc(C(=O)Nc2ccnn2C)cc1-c1ccc2c([C@@](C)(O)C(F)(F)F)nncc2c1 [Example 251, 4-methyl-N-(1-methyl-1H-pyrazol-5-yl)-3-(1-((1R)-2,2,2-trifluoro-1-hydroxy-1-methylethyl)-6-phthalazinyl)benzamide]	
0.745	0.242	Cc1ccc(C(=O)NC2CC2)cc1-c1ccc2c(C(C)(C)F)nncc2c1 [Example 252, N-cyclopropyl-3-(1-(1-fluoro-1-methylethyl)-6-phthalazinyl)-4-methylbenzamide]	
0.696	0.168	Cc1c(F)cc(C(=O)NC2CC2)cc1-c1ccc2c(C(C)(C)F)nncc2c1 [Example 253, N-cyclopropyl-3-fluoro-5-(1-(1-fluoro-1-methylethyl)-6-phthalazinyl)-4-methylbenzamide]	
0.769	0.501	Cc1c(F)cc(C(=O)NC2CC2)cc1-c1ccc2c(O[C@H](C)C(F)(F)F)nncc2c1 [Example 254, N-cyclopropyl-3-fluoro-4-methyl-5-(1-(((1R)-2,2,2-trifluoro-1-methylethyl)oxy)-6-phthalazinyl)benzamide]	
0.592	0.307	Cc1c(F)cc(C(=O)NC2CC2)cc1-c1ccc2c(O[C@@H](C)C(F)(F)F)nncc2c1 [Example 255, N-cyclopropyl-3-fluoro-4-methyl-5-(1-(((1S)-2,2,2-trifluoro-1-methylethyl)oxy)-6-phthalazinyl)benzamide]	
1.03	0.18	Cc1ccc(C(=O)NC2CC2)cc1-c1ccc2c([C@H](C)C(F)F)nncc2c1 [Example 256, N-cyclopropyl-3-(1-((1S)-2,2-difluoro-1-methylethyl)-6-phthalazinyl)-4-methylbenzamide]	
1.02	0.813	CCNC(=O)c1ccc(C)c(-c2ccc3c(O[C@@H](C)C(F)(F)F)nncc3c2)c1 [Example 257, N-ethyl-4-methyl-3-(1-(((1S)-2,2,2-trifluoro-1-methylethyl)oxy)-6-phthalazinyl)benzamide]	

SMILES	IC50 [2] [nM]	IC50 [3] [nM]	IC50 [1] [nM]
Cc1ccc(C(=O)NC2CC2)cc1-c1ccc2c(-c3cc(F)c(S(C)(=O)=O)cc3C)nncc2c1 [Example 223, N-cyclopropyl-3-(1-(5-fluoro-2-methyl-4-(methylsulfonyl)phenyl)-6-phthalazinyl)-4-methylbenzamide]	0.854	1.22	≤ 10
Cc1ccc(C(=O)NC2CC2)cc1-c1ccc2c([C@H](C)C(F)(F)F)nncc2c1 [Example 227b, N-cyclopropyl-4-methyl-3-(1-((1S)-2,2,2-trifluoro-1-methylethyl)-6-phthalazinyl)benzamide]	1.61	0.33	≤ 10
[2H]c1c([2H])c(C(=O)NC2CC2)c([2H])c(-c2ccc3c(OC(C)C(F)(F)F)nncc3c2)c1C (stereo not drawn) [Example 259, N-cyclopropyl-4-methyl-3-(1-((2,2,2-trifluoro-1-methylethyl)oxy)-6-phthalazinyl)benzamide-d 3]	0.991	1.7	

From patent US8101612B2, “Phthalazine compounds and methods of use” (Amgen Inc., priority 2006, dated 2012)
